Source: patent US20050048108A1, “Sulphur-containing amphiphilic agents for the transfer of biologically active molecules into cells” (G.O.T. Therapeutics GMBH, priority 2000, published 2005)

System: HeLa (human cervical carcinoma), F98 (rat glioblastoma), IMR90 (human embryonic lung) cell lines
Assay: Transfection of adherent cell lines with pUT 651 plasmid (lacZ / β-galactosidase reporter)
Format: cell-based
Conditions: all investigated cell lines, versus Lipofectin, LipofectAMINE, DOTAP and DAC-30
Protocol: The gene transfer properties of the lipids according to the invention (lipid 9 (Sulfectin A) and lipid 10 (Sulfectin B)) were tested on various cell lines and were compared with the reagents known heretofore (FIGS. 3, 4 and 5). A plasmid coded for β-galactosidase was used as the reporter system. In the trials, the lipids were also mixed with, among other things, the neutral auxiliary lipid 1,2-dioleoyl-sn-glycero-3-phosphoethanolamine (DOPE). […] Among others a β-galactosidase expression up to 10 times higher was found. This is the more surprising in that in most cases (IMR90 and F98 cells) no admixture of an a helper lipid was necessary. With all the commercial lipids, on the other hand, a portion of DOPE was indispensable for an efficient gene transfer. The high gene transfer efficiency of the pure lipid is also advantageous for the production of the gene transfer reagent, since the formulation step of the cationic lipid and auxiliary lipid is omitted. […]
After a transfection time of 24 h, the medium is changed and the cells are incubated for a further 48 h. […] The lysate is treated with chlorophenol red β-galactopyranoside (Roche Diagnostics, 1 mg/ml in HBSS) as a substrate for β-galactosidase, and the optical density at different intervals is determined with a microplate reader (Dynex) (measurement wavelength 540 nm, reference wavelength 630 nm).

For `CCCCCCCC/C=C\CCCCCCCC(=O)OCC(CCS(=O)(=O)CCCN)OC(=O)CCCCCCC/C=C\CCCCCCCC.O=C(O)C(F)(F)F` (centres unmarked) [lipid 9, 3-[(3,4-dioleoyloxybutyl)-sulfonyl]propyl-1-ammonium trifluoroacetate], the “gene transfer (transfection) efficiency compared with the known lipids” value was “markedly higher efficiency”.

In the case of `CCCCCCCC/C=C\CCCCCCCC(=O)OCC(CC[S+]([O-])CCCN)OC(=O)CCCCCCC/C=C\CCCCCCCC.O=C(O)C(F)(F)F` (centres unmarked) [lipid 10, 3-[(3,4-dioleoyloxybutyl)-sulfinyl]propyl-1-ammonium trifluoroacetate], the “gene transfer (transfection) efficiency compared with the known lipids” value is reported as “markedly higher efficiency”.
